Reference: ChEMBL document CHEMBL4421717, “Antagonists and agonists of bitter taste receptors and uses thereof” (2012)
The source made the active and inactive calls. No cut-off for these calls is given here.

Tests used:
Type in all cases: functional, cell-based
[1] = biological target: T1, Taste receptor type 2 member 46 (Homo sapiens, UniProt P59540); test: Antagonist activity at recombinant human N-terminal rat ST3 receptor-fused TAS2R46 expressed in HEK293T cells co-expressing Galpha16gust44 assessed as inhibition of 30 uM andrographolide-induced intracellular calcium level 100 uM by FLIPR assay
T1 sequence (P59540 whole entry): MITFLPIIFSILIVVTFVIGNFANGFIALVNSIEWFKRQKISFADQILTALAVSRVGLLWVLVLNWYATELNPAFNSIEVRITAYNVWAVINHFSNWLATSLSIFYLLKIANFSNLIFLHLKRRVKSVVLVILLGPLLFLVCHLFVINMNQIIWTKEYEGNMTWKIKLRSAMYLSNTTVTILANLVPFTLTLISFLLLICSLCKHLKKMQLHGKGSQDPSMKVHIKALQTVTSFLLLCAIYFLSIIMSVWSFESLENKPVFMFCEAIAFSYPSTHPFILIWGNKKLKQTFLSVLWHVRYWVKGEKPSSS

[2] = biological target: T2, Taste receptor type 2 member 8 (Homo sapiens) (UniProt Q9NYW2); test: Agonist activity at recombinant human N-terminal rat ST3 receptor-fused TAS2R8 expressed in HEK293T cells co-expressing Galpha16gust44 assessed as effect on intracellular calcium level at 100 uM by FLIPR assay
T2 sequence (whole entry): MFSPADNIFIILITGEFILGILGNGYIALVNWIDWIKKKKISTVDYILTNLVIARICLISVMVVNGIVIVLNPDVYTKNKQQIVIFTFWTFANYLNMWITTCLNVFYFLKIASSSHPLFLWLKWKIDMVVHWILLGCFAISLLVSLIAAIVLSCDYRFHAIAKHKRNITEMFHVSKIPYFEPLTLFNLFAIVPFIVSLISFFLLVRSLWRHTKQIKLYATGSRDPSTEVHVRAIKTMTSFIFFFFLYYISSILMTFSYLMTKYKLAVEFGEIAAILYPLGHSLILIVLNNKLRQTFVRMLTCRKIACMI

[3] = biological target: T3, Taste receptor type 2 member 46 (Homo sapiens) (UniProt P59540); test: (§1) Competitive antagonist activity at recombinant human N-terminal rat ST3 receptor-fused TAS2R46 expressed in HEK293T cells co-expressing Galpha16gust44 assessed as inhibition strychnine-induced intracellular calcium level by measuring strychnine induced maximum signal amplitude at 100 uM by FLIPR assay (reference value: 0.42 +/- 0.09 au))
T3 sequence (whole entry): T1 sequence (P59540 whole entry)

[4] = biological target: Taste receptor type 2 member 40 (Homo sapiens) (UniProt P59535); test: Agonist activity at recombinant human N-terminal rat ST3 receptor-fused TAS2R40 expressed in HEK293T cells co-expressing Galpha16gust44 assessed as effect on intracellular calcium level at 100 uM by FLIPR assay
Sequence of Taste receptor type 2 member 40 (Homo sapiens) (P59535 whole entry, the tested form may be a part): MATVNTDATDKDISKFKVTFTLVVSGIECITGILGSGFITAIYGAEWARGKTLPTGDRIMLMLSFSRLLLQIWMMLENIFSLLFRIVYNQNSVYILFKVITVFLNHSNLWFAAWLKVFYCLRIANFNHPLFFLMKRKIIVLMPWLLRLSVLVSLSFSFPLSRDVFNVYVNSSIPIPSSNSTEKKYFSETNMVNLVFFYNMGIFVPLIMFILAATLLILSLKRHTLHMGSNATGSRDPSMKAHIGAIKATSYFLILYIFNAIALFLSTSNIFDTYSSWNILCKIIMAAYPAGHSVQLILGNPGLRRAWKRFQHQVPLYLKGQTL

[5] = biological target: T3, Taste receptor type 2 member 46 (Homo sapiens); test: as §1, with “10” for “100”
[6] = biological target: T4, Taste receptor type 2 member 9 (Homo sapiens) (UniProt Q9NYW1); test: Agonist activity at recombinant human N-terminal rat ST3 receptor-fused TAS2R9 expressed in HEK293T cells co-expressing Galpha16gust44 assessed as effect on intracellular calcium level at 100 uM by FLIPR assay
T4 sequence (whole entry): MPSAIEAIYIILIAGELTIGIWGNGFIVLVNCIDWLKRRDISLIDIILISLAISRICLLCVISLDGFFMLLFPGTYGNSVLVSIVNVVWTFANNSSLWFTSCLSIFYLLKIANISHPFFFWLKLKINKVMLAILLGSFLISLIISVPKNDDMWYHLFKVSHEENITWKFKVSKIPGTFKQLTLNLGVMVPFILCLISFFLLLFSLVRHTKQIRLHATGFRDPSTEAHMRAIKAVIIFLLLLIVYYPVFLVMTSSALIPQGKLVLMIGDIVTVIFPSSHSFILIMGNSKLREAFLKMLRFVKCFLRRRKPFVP

[7] = biological target: Taste receptor type 2 member 5 (Homo sapiens) (UniProt Q9NYW4); test: Activity at recombinant human N-terminal rat ST3 receptor-fused TAS2R5 expressed in HEK293T cells co-expressing Galpha16gust44 assessed as increase in denatonium saccharide-induced intracellular calcium level at 100 uM by FLIPR assay
Sequence of Taste receptor type 2 member 5 (Homo sapiens) (Q9NYW4 whole entry, the tested form may be a part): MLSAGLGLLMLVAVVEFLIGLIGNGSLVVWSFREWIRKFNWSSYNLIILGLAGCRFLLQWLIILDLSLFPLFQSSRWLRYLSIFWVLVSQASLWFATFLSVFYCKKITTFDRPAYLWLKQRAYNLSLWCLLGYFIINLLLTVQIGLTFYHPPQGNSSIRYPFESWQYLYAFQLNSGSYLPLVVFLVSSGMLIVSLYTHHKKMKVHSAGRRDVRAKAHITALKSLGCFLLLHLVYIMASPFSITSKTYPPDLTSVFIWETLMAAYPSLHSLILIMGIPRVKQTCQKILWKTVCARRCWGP

[8] = biological target: Taste receptor type 2 member 5 (Homo sapiens) (UniProt Q9NYW4); test: Agonist activity at recombinant human N-terminal rat ST3 receptor-fused TAS2R5 expressed in HEK293T cells co-expressing Galpha16gust44 assessed as effect on intracellular calcium level at 100 uM by FLIPR assay
[9] = biological target: T5, Taste receptor type 2 member 30 (Homo sapiens) (UniProt P59541); test: Agonist activity at recombinant human N-terminal rat ST3 receptor-fused TAS2R47 expressed in HEK293T cells co-expressing Galpha16gust44 assessed as effect on intracellular calcium level at 100 uM by FLIPR assay
T5 sequence (whole entry): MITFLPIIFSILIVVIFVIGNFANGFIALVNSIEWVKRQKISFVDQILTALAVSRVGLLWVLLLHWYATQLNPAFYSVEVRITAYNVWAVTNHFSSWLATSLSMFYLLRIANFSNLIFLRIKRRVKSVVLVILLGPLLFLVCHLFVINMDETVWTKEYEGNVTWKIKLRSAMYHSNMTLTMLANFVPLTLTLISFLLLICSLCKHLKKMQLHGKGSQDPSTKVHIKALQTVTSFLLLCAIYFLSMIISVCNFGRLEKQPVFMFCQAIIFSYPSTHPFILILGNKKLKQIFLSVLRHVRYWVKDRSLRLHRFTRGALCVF

[10] = biological target: T3, Taste receptor type 2 member 46 (Homo sapiens); test: as §1, with “30” for “100”
[11] = biological target: T6, Taste receptor type 2 member 3 (Homo sapiens) (UniProt Q9NYW6); test: Agonist activity at recombinant human N-terminal rat ST3 receptor-fused TAS2R3 expressed in HEK293T cells co-expressing Galpha16gust44 assessed as effect on intracellular calcium level at 100 uM by FLIPR assay
T6 sequence (whole entry): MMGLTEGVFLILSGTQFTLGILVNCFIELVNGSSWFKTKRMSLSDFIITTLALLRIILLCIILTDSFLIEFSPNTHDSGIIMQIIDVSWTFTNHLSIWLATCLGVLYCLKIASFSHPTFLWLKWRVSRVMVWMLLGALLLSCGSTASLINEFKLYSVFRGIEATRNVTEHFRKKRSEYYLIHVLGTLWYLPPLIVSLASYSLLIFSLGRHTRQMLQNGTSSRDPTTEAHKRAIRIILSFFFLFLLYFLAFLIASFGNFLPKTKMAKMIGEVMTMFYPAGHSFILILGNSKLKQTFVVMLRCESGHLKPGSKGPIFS

Row | SMILES | IC50 [1] [µM] | Activity [2] | Activity [3] [a.u.] | Activity [4] | Activity [5] [a.u.] | Activity [6] | Activity [7] | Activity [8] | Activity [9] | Activity [10] [a.u.] | Activity [11]
1 | C/C1=C\C[C@H](O)[C@@H](C)C[C@H]2OC(=O)[C@@H](C)C2CC1 (stereo partly specified) | 44.5 |  |  |  |  |  |  |  |  |  | 
2 | C/C1=C\C[C@H](O)/C(C)=C/[C@H]2OC(=O)[C@@H](C)C2CC1 (stereo partly specified) |  | Active | 0.34 | inactive | 0.4 | inactive | Active | inactive | inactive | 0.41 | inactive
